Holding throughout (type): nucleic-acid assay
Assay [1] relates to Nucleic Acid. The assay is described as follows: Binding affinity to D16 ssDNA aptamer.
Assay [2] deals with Nucleic Acid. The assay is described as follows: Binding affinity to D3 ssDNA aptamer.
For assay [3], the system named is Nucleic Acid. In words: Binding affinity to D22 ssDNA aptamer.
Assay [4] has as its target Nucleic Acid. In words: Binding affinity to D10/DA24 ssDNA aptamer.

Activity calls are given as the source filed them. No cut-off for these calls is given here.

Regarding `O=C(O)Cc1ccccc1Nc1ccccc1`, the result with Nucleic Acid [1] and in the assay with Nucleic Acid [3] was Active. Besides, in the assay with Nucleic Acid [2], the outcome was inactive.

As to `O=C(O)Cc1ccccc1Nc1c(Cl)cccc1Cl` [DICLOFENAC], the equilibrium dissociation constant (Kd) at Nucleic Acid [1] is 149 nM; on Nucleic Acid [4], 101 nM; on Nucleic Acid [2], 42.7 nM; at Nucleic Acid [3], 166 nM.

As usually defined, the Kd is a measure of binding affinity in units of concentration. High values mean lower affinity, low ones higher affinity.

These data come from ChEMBL document CHEMBL1152509, “ssDNA aptamers that recognize diclofenac and 2-anilinophenylacetic acid” (Bioorg Med Chem, 2009).
